Columns and labels:
[1] = Solubility of drinabant in excipients; format: physicochemical
Protocol: Drinabant may be added to a fixed volume of aqueous solution with and without various amounts of water soluble carriers such as Solutol HS 15 in screw capped bottles. […] Filtered solutions are then analyzed for drinabant concentration using an appropriate method such as UV/visible spectrophotometry at an appropriate wavelength (nm) or by HPLC.
Two different categories of excipients, described in the literature as injectable intravenously, were tested for the solubility of drinabant:
(§1) The chemical composition of the selected excipients, as well the solubility of drinabant, are renorted in the table below.

[2] = cited from earlier work
[3] = Stability at RT of drinabant in the saturated solution; format: physicochemical
Description: as §1

SMILES: CS(=O)(=O)N(c1cc(F)cc(F)c1)C1CN(C(c2ccc(Cl)cc2)c2ccc(Cl)cc2)C1 [drinabant]
- drinabant solubility ([1]; in Cremophor EL (POE hydrogenated castor oil)): 49.4 mg/g
- drinabant solubility ([1]; in Glycerol): <<0.0001 mg/g
- drinabant solubility ([1]; in Glycofurol): 139.4 mg/g
- drinabant solubility ([1]; in PEG 400): 50 mg/g
- drinabant solubility ([1]; in PS80 VG (POE monooleate)): 48.8 mg/g
- drinabant solubility ([1]; in Propylene glycol): 7 mg/g
- drinabant solubility ([1]; in Solutol HS15 (PEG hydroxystearate), at 40° C.): 64.6 mg/g
- Tmax ([2]; oral drinabant): > 3 h
- safety and tolerability ([2]; oral, up to 240 mg up to 3 weeks (Phase I), 60 mg up to 24 weeks (Phase II)): safe and well tolerated
- Stability at RT of drinabant in the saturated solution ([3]; in Cremophor EL): Stable
- Stability at RT of drinabant in the saturated solution ([3]; in PS80 VG): Stable
- Stability at RT of drinabant in the saturated solution ([3]; in Solutol HS15): Stable
